IC50 and half-life data for seven molecules are collected here from US8912209B2, “Rock inhibitors” (Amakem NV, priority 2010, dated 2014).

Where two headings read alike, the source gives them in different places.

Series [1] deals with T1, ROCK II (Homo sapiens, UniProt O75116).
T1 construct: purchased Proqinase
The experiment in a line: ROCK II kinase inhibition, Method 1 Proqinase setup (33P radioisotopic protein kinase assay). The class given is biochemical. As to conditions: 33P radioisotopic assay, 1 μM ATP, read-out: IC50 Meth. 1. On the procedure: A ^33P radioisotopic protein kinase assay is used to determine the IC50 for inhibiting ROCK II. A final 50 μl reaction cocktail, containing 60 mM HEPES-NaOH (pH 7.5), 3 mM MgCl2, 3 mM MnCl2, 3 μM Na-orthovanadate, 1.2 mM DTT, 1 μM ATP, 50 μg/ml PEG20.000, 1% (v/v) DMSO, 1 μM ATP (approx. 3×10^5 cpm ^33P-γ-ATP), the substrate (Substrate: S6 peptide—2000 ng/well) and recombinant protein kinase (0.5 nM-2.5 ng/well) is mixed on a shaker and incubated at 30° C. for 80 minutes. The reaction is stopped by the addition of 50 μl of a 2% solution of H3PO4 and mixed on a shaker. After washing twice with 200 μl of a 0.9% solution of NaCl, the dry plate is counted.

The target in series [2] is T2, ROCKα/ROCKII (Homo sapiens, UniProt O75116).
T2 construct: purchased Upstate Biotechnology 14-451
Description: ROCK inhibition, Method 2 fluorescence polarization (FP) assay, ROCK IMAP Kit. The class given is biochemical. As to conditions: 10 μM ATP, read-out: IC50 Meth. 2. On the technique in general: In fluorescence polarisation assays a small probe gives low polarisation when free and higher when bound to something large.

Series [3] concerns LPS-stimulated PBMC. The experiment in a line: Cellular assay using LPS-stimulated PBMC, TNF release (ELISA), in the absence and presence of plasma. The class given is cell-based. An excerpt: C.1.2. Activity Against ROCK in a Cellular Assay Using LPS-Stimulated PBMC in the Absence and Presence of Plasma
To ensure the stimulation of PBMC by LPS, the medium is enriched with LPS-binding protein (LBP) that will facilitate the delivery of LPS to the CD14 receptor and enhance the LPS-induced immune response. Cytokines secreted by activated PBMC include TNF, which is detected by means of a colorimetric ELISA. In the presence of an active compound, the release of TNF is inhibited in a concentration-dependent manner. Subsequently a control assay using the same set up in the presence of plasma is included.
(ELISA stands for enzyme-linked immunosorbent assay.)

Series [4] relates to Guinea pig trachea rings. Description: Smooth muscle relaxing activity in organ baths of guinea pig trachea (carbachol). To be noted: Cavia porcellus; guinea pig trachea rings contracted with carbachol. On the procedure:
C.1.3. Smooth Muscle Relaxing Activity of Generated Soft ROCK Inhibitors In Vitro Using Organ Baths of Guinea Pig Trachea
Guinea pig trachea rings are prepared and incubated with a fixed concentration of the bronchoconstrictive agent carbachol. Then, increasing concentrations of the soft ROCK inhibitors are added and the contractive properties of the trachea measured for each of the compound concentrations. The study set-up allows the determination of an IC50, represented by the concentration of compound that induces a force equal to 50% of that observed for the vehicle-treated trachea.
In addition retention on the target is assessed using the above described organ baths of guinea pig trachea. In brief, upon induction of maximal relaxation with the ROCK inhibitors, trachea rings are thoroughly washed. Then, carbachol is added again and contractive properties are measured to determine whether the inhibitory activity of the ROCK inhibitors is prolonged upon the washout. A prolonged inhibitory activity after the washout is highly indicative for a prolonged retention of the compound at the lungs in vivo.

A short description of series [5]: Stability assay in rat plasma. The class given is in vitro ADME. To be noted: 1 μM in rat plasma, LC-MS/MS; read-out: t½ rat plasma. On the procedure: (§1) C.2.1. Stability Assay in Human and/or Rat Plasma
(§2) Compounds are incubated at a concentration of 1 μM in rat (mice or rabbit) or human plasma. Samples are taken at fixed time points and the remnant of compound is determined by LC-MS/MS after protein precipitation. Half life is expressed in minutes.

Series [6] is described as follows: Stability assay in human plasma. The class given is in vitro ADME. As to conditions: 1 μM in human plasma, LC-MS/MS; read-out: t½ human plasma. On the procedure: as §1, §2
Series [7] can be described thus: Stability towards drug metabolizing enzymes in lung S9. In kind it is in vitro ADME. As to conditions: human, lung S9 from smokers with NADPH, UDPGA, PAPS and GSH, read-out: t½ human lung S9. On the procedure:
i) C.2.2. Stability Towards Drug Metabolizing Enzymes in Lung S9
A 1 μM solution of the ROCK inhibitors is incubated with a reaction mixture containing lung S9 (from smokers) as well as the cofactors NADPH, UDPGA, PAPS and GSH. Samples are collected at 0, 15, 30 and 60 minutes post incubation. Negative control samples incubated with ROCK inhibitors and S9 fraction in the absence of cofactors are run in parallel. By using LC-MS/MS analysis, the percent of ROCK compounds remaining at each time point, the metabolic half-life of the ROCK compounds (expressed in minutes) and the metabolic half-life of the control compounds are determined.

The nature of series [8]: Stability assay in rabbit aqueous humor. The class given is in vitro ADME. To be noted: 1 μM in rabbit aqueous humor, LC-MS/MS; read-out: t½ rabbits AH. On the procedure:
i) C.2.3. Stability Assay in Rabbit Aqueous Humor
Compounds are incubated at a concentration of 1 μM in rabbit aqueous humor (AH). Samples are taken at fixed time points and the remnant of compound is determined by LC-MS/MS after protein precipitation.

T1 sequence (O75116 whole entry): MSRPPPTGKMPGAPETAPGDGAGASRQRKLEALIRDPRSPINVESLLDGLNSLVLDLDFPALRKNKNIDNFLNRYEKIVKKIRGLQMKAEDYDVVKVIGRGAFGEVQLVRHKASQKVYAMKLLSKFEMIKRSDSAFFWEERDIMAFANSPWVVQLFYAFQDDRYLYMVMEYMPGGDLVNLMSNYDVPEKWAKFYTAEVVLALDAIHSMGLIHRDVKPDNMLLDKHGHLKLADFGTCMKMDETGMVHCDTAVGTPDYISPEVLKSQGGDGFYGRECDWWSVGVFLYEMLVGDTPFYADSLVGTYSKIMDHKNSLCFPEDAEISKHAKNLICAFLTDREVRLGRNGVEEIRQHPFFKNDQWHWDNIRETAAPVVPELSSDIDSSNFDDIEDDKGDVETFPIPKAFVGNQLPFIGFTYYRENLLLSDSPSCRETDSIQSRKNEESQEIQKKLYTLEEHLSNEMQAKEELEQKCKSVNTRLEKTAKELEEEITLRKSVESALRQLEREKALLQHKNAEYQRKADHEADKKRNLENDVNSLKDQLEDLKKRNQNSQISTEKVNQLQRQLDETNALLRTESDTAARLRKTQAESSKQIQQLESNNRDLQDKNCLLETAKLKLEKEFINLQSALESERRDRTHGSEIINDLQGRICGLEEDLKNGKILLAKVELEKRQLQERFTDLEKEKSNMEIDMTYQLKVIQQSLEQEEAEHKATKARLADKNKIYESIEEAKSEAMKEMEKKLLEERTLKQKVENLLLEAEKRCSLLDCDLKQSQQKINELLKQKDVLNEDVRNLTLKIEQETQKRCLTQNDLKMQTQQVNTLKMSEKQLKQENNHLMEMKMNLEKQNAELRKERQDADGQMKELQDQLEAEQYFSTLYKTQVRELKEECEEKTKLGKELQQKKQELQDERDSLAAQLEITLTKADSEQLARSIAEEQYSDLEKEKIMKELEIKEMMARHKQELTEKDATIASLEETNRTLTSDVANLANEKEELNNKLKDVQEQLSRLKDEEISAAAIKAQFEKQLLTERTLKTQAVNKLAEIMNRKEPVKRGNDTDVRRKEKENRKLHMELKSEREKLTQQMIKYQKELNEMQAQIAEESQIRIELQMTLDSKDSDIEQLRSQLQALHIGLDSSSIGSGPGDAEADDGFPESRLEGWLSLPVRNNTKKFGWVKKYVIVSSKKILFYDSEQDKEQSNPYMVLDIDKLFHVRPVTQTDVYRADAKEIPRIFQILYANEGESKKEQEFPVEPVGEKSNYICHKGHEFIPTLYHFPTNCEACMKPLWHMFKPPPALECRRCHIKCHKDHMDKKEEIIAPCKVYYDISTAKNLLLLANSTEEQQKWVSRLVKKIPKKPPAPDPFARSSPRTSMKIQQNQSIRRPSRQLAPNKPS
T2 sequence (O75116 whole entry): as above

`CC(N)c1ccc(C(=O)Nc2ccncc2F)cc1-c1cccc(C(=O)OCC2CCCO2)c1` (stereo not drawn) [Compound 46, 2′-(1-Amino-ethyl)-5′-(3-fluoro-pyridin-4-ylcarbamoyl)-biphenyl-3-carboxylic acid tetrahydro-furan-2-ylmethyl ester]: the half-inhibitory concentration (IC50) in series [1] was 0.1 to 1 µM; in series [2], < 0.1 µM; in series [3] (in the presence of plasma, read-out: IC50 in the presence of plasma) it was > 10 µM; in series [3] (without plasma, read-out: IC50 (assay without plasma)) it was 0.12 µM; in series [4] it was 0.5 µM. The half-life at 1 μM in series [5] was 5.8 min; in series [6], 1.9 min; in series [7], 53 min; in series [8] it was > 60 min.
With `CC(N)c1ccc(C(=O)Nc2ccncc2F)cc1-c1cccc(C(=O)OCC2CCCCO2)c1` (stereo not drawn) [Compound 47, 2′-(1-Amino-ethyl)-5′-(3-fluoro-pyridin-4-ylcarbamoyl)-biphenyl-3-carboxylic acid tetrahydro-pyran-2-ylmethyl ester], the 50% inhibitory concentration (IC50) in series [1] was 0.1 to 1 µM; in series [2] it was < 0.1 µM. The results for the half-life at 1 μM in series [5], in series [6] and in series [7] were 4.5 min, 9.8 min and > 60 min, respectively.
On to `CC(N)c1ccc(C(=O)Nc2ccncc2)cc1-c1cccc(C(=O)OCCO)c1` (stereo not drawn) [Compound 65, 2′-(1-Amino-ethyl)-5′-(pyridin-4-ylcarbamoyl)-biphenyl-3-carboxylic acid 2-hydroxy-ethyl ester], for which the IC50 in series [1] and in series [2] was < 0.1 µM each time. Further, the half-life at 1 μM in series [7] was > 60 min.
For `CCSC(=O)c1cccc(-c2cc(C(=O)Nc3ccncc3)ccc2CN)c1` [Compound 97, 2′-Aminomethyl-5′-(pyridin-4-ylcarbamoyl)-biphenyl-3-carbothioic acid S-ethyl ester], the concentration for half-maximal inhibition (IC50) in series [1] was < 0.1 µM. Further, the half-life at 1 μM in series [5] is 38 min; in series [6], 44 min.
The matching figures for `COC(=O)COc1cccc(-c2cc(C(=O)Nc3ccncc3)ccc2CN)c1` [Compound 137, [2′-Aminomethyl-5′-(pyridin-4-ylcarbamoyl)-biphenyl-3-yloxy]-acetic acid methyl ester]: 0.1 to 1 µM, < 1 min and 1.9 min.
In the case of `CCCOC(=O)c1cc(-c2cc(C(=O)Nc3ccncc3)ccc2C(C)N)c[nH]1` (stereo not drawn) [Compound 169, 4-[2-(1-Amino-ethyl)-5-(pyridin-4-ylcarbamoyl)-phenyl]-1H-pyrrole-2-carboxylic acid propyl ester], in series [1], the IC50 is < 0.1 µM. For the same molecule, in series [8], the half-life at 1 μM is > 60 min.
Regarding `CCCOC(=O)c1cc2c(-c3cc(C(=O)Nc4ccncc4)ccc3C(C)N)cccc2[nH]1` (stereo not drawn) [Compound 172, 4-[2-(1-Amino-ethyl)-5-(pyridin-4-ylcarbamoyl)-phenyl]-1H-indole-2-carboxylic acid propyl ester], the IC50 in series [1] and in series [2] was 0.1 to 1 µM throughout.

One may read the IC50 as the concentration needed to halve the response being measured.
